Measured values: publication PMC3101270 (Biochemistry, 2011)

What was measured:
PfOPRT [1] = biological target: T1, PfOPRT (Plasmodium falciparum, UniProt Q8N0R1); test: ultrafiltration with 3H/[…]-labelled ligand; type: binding
T1 sequence (Q8N0R1 1-281): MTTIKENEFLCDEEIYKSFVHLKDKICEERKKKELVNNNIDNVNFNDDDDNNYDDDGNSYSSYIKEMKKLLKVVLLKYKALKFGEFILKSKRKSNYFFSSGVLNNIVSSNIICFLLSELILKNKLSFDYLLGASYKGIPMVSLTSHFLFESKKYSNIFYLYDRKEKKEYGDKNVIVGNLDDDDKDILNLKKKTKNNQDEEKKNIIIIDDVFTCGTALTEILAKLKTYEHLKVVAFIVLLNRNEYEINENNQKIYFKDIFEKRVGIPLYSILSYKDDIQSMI

HsOPRT [2] = biological target: T2, HsOPRT (Homo sapiens, UniProt P11172); test: ultrafiltration with 3H/[…]-labelled ligand; type: binding
T2 sequence (P11172 2-214 limits assumed): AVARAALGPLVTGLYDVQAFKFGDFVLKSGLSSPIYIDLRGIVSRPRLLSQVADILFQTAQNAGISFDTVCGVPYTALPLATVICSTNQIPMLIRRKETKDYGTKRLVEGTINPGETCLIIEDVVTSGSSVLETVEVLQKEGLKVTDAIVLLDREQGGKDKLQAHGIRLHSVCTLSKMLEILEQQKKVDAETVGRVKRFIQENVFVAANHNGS

HsOPRT [3] = biological target: T2, HsOPRT; test: enzyme inhibition; type: biochemical
PfOPRT [4] = biological target: T1, PfOPRT; test: enzyme inhibition; type: biochemical

Row | Compound | Kd (PfOPRT [1]) [µM] | Kd (HsOPRT [2]) [µM] | Ki (HsOPRT [3]) [µM] | Ki (PfOPRT [4]) [µM]
1 | O=C(O)c1cc(=O)[nH]c(=O)n1[C@@H]1O[C@H](COP(=O)(O)O)[C@@H](O)[C@H]1O [OMP] | 3.1 ± 1.6 | 2.5 ± 1.2 |  | 
2 | O=S(=O)(O)O [sulfate] |  |  | 17600 ± 2800 | 3100 ± 300
